This passage reports viability results from paper PMC12040169 (PLOS Biology, 2025).

Structures are written as SMILES.

A short description of the data set: in vitro. The following applies: human, hela cells, % viability.

For the compound `O=S(=O)(Nc1nnc(C(F)(F)F)s1)c1ccc(-c2ccccn2)s1` [CBK062016], the viability at 28.5 h, 10 µM was found to be 91.9%. The same measure for `Cc1c(S(=O)(=O)Nc2nnc(C(F)(F)F)s2)sc2ccc(Cl)cc12` [CBK062018]: 81.9%; for `O=[N+]([O-])c1cc(S(=O)(=O)Nc2nnc(C(F)(F)F)s2)ccc1Cl` [CBK062021]: 105%; for `O=C(O)c1cc(S(=O)(=O)Nc2nnc(C(F)(F)F)s2)c(F)cc1Cl` [CBK062022]: 95%.

On to `O=C(O)c1ccc(S(=O)(=O)Nc2nnc(C(F)(F)F)s2)cc1` [CBK062023], for which the viability at 28.5 h, 10 µM is 91.5%.

With `Cc1noc(C)c1S(=O)(=O)NC1CCN(Cc2ccccc2)CC1` [CBK062028], the viability at 28.5 h, 10 µM worked out at 83.4%. The value for `O=S(=O)(NC1CCN(Cc2ccccc2)CC1)c1cccc2nsnc12` [CBK062029] was 80.8%; that for `O=S(=O)(NC1CCN(Cc2ccccc2)CC1)c1cccc2nonc12` [CBK062030] was 94.6%.

Turning to `Cc1noc(C)c1S(=O)(=O)Nc1ccnn1C` [CBK062073], the viability at 28.5 h, 10 µM came to 90.1%. As to `Cc1c(S(=O)(=O)Nc2ccnn2C)cnn1-c1ccccc1` [CBK062079], the viability at 28.5 h, 10 µM was determined as 97.5%. The value for `Cn1nccc1NS(=O)(=O)c1ccc(-c2cnco2)s1` [CBK062088] was 94.4%; that for `Cn1nccc1NS(=O)(=O)c1cc(C(F)(F)F)cc(C(F)(F)F)c1` [CBK062090] was 92.6%. For the compound `O=S(=O)(Nc1ccc(C(O)(C(F)(F)F)C(F)(F)F)cc1)c1cccc2nsnc12` [CBK062096], the viability at 28.5 h, 10 µM was 108%. The same measure for `Cc1c(S(=O)(=O)Nc2ccc(C(O)(C(F)(F)F)C(F)(F)F)cc2)cnn1-c1ccccc1` [CBK062099]: 92.1%.

For `O=S(=O)(Nc1ccc(C(O)(C(F)(F)F)C(F)(F)F)cc1)c1ccc(N2CCOCC2)nc1` [CBK062100], the viability at 28.5 h, 10 µM is 94.9%. As to `O=S(=O)(Nc1ccc(C(O)(C(F)(F)F)C(F)(F)F)cc1)c1ccccc1Br` [CBK062101], the viability at 28.5 h, 10 µM is 96.3%.

With `O=S(=O)(Nc1ccc(C(O)(C(F)(F)F)C(F)(F)F)cc1)c1ccc(Cl)c(Cl)c1` [CBK062102], the viability at 28.5 h, 10 µM worked out at 111%. The value for `O=S(=O)(Nc1ccc(C(O)(C(F)(F)F)C(F)(F)F)cc1)c1ccc(-c2ccon2)s1` [CBK062105] was 91.2%; that for `Cc1nn(C)c(Cl)c1S(=O)(=O)NCc1ccc(C(F)(F)F)c(F)c1` [CBK062111] was 93.8%; that for `Cc1c(S(=O)(=O)NCc2ccc(C(F)(F)F)c(F)c2)cnn1-c1ccccc1` [CBK062115] was 108%.

`Cc1nn(C)c(Cl)c1S(=O)(=O)Nc1cccc(-c2nnn[nH]2)c1` [CBK062127]: the viability at 28.5 h, 10 µM is 96%. `CCc1nnc(NS(=O)(=O)c2cc(C(=O)O)c(Cl)cc2F)s1` [CBK062195]: the viability at 28.5 h, 10 µM came out at 90.9%. The same measure for `Cc1nn(C)c(Cl)c1S(=O)(=O)Nc1ccc2nsnc2c1` [CBK062222]: 69.6%; for `CN1CCOc2cc(S(=O)(=O)Nc3cccnc3N3CCOCC3)ccc21` [CBK062299]: 108%; for `Cc1cnc(CNS(=O)(=O)c2c(C)noc2C)cn1` [CBK062328]: 104%. The same measure for `Cc1cc(OC(F)(F)F)ccc1NS(=O)(=O)c1ccc(-c2ccon2)s1` [CBK062361]: 86.7%; for `O=S(=O)(Nc1nnn[nH]1)c1cccc(C(F)(F)F)c1` [CBK062377]: 108%.

With `Cc1noc(C)c1S(=O)(=O)Nc1nnn[nH]1` [CBK062378], the viability at 28.5 h, 10 µM turned out to be 112%. The same measure for `O=S(=O)(Nc1nnn[nH]1)c1ccc(N2CCOCC2)nc1` [CBK062385]: 99%; for `CN1CCOc2cc(S(=O)(=O)Nc3nnn[nH]3)ccc21` [CBK062389]: 99.1%; for `O=S(=O)(Nc1nnn[nH]1)c1ccc(-c2ccon2)s1` [CBK062391]: 97.7%. Regarding `O=S(=O)(Nc1nnn[nH]1)c1ccc(-c2cnco2)s1` [CBK062394], the viability at 28.5 h, 10 µM came out at 109%. The value for `O=S(=O)(c1ccccc1Br)N1CCOCC1` [CBK062404] was 96.9%; that for `O=S(=O)(c1ccc(Br)cc1C(F)(F)F)N1CCOCC1` [CBK062405] was 102%; that for `CN1CCN(S(=O)(=O)c2cccc(C(F)(F)F)c2)CC1` [CBK062425] was 103%. The same measure for `Cc1nn(C)c(Cl)c1S(=O)(=O)N1CCN(C)CC1` [CBK062426]: 106%.

Regarding `CN1CCN(S(=O)(=O)c2cccc3nsnc23)CC1` [CBK062428], the viability at 28.5 h, 10 µM is 102%. The same measure for `CN1CCN(S(=O)(=O)c2ccc3oc(=O)ccc3c2)CC1` [CBK062431]: 118%. The value for `CN1CCN(S(=O)(=O)c2ccccc2Br)CC1` [CBK062435] was 93.2%; that for `O=S(=O)(Nc1ccc2[nH]ncc2c1)c1ccc(Oc2ccccc2)cc1` [CBK062522] was 82.9%; that for `O=[N+]([O-])c1cc(S(=O)(=O)Nc2ccc3[nH]ncc3c2)ccc1Cl` [CBK062537] was 84.6%. Regarding `Cc1noc(C)c1S(=O)(=O)Nc1cc(C(F)(F)F)ccc1N1CCOCC1` [CBK062545], the viability at 28.5 h, 10 µM worked out at 90.4%. The same measure for `Cc1c(S(=O)(=O)Nc2cc(C(F)(F)F)ccc2N2CCOCC2)cnn1-c1ccccc1` [CBK062551]: 99.7%; for `O=S(=O)(Nc1cc(C(F)(F)F)ccc1N1CCOCC1)c1ccc(-c2ccccn2)s1` [CBK062557]: 79.5%. The value for `O=S(=O)(Nc1cccc2nonc12)c1ccccc1Br` [CBK062577] was 102%; that for `O=S(=O)(Nc1nnn[nH]1)c1ccc(-c2ccccn2)s1` [CBK062589] was 106%. The same measure for `Cn1nc(-c2ccc(S(=O)(=O)NCCN3CCNC3=O)s2)cc1C(F)(F)F` [CBK062610]: 91.6%. With `CC(=O)Nc1nonc1-c1nc2ccccc2n1CCC#N` [CBK062641], the viability at 28.5 h, 10 µM was found to be 100%.

`CCn1c(-c2nonc2NC(C)=O)nc2ccccc21` [CBK062645]: the viability at 28.5 h, 10 µM amounted to 80%. The same measure for `CCCCCCC(C)n1c(-c2nonc2N)nc2ccccc21` (centres unmarked) [CBK062648]: 94.2%; for `N#Cc1nonc1NCn1nnc2ccccc21` [CBK062650]: 81.7%; for `N#CCn1nnc(-c2ccc3c(c2)OCO3)n1` [CBK062663]: 98.7%. Take `CCN(C(=O)c1ccc(=O)[nH]c1)C(CC1CCCCC1)c1ccccc1` (centres unmarked) [CBK062678]: the viability at 28.5 h, 10 µM stood at 91.1%. With `CC(C)CN(CC(=O)NC1(c2ccccc2)CCC1)C(=O)N(C)C` [CBK062704], the viability at 28.5 h, 10 µM was found to be 96.1%. The value for `O=S(=O)(c1ccc(C(F)(F)F)cc1Cl)N1CCN(Cc2ccc(F)cc2F)CC1` [CBK062739] was 107%; that for `Cc1cc(CN2CCN(S(=O)(=O)c3ccc(-c4ccccc4)cc3)CC2)cc(C)c1O` [CBK062747] was 115%. For `N#Cc1ccc(CN2CCN(S(=O)(=O)c3ccc(-c4ccccc4)cc3)CC2)cc1` [CBK062752], the viability at 28.5 h, 10 µM amounted to 105%. Take `CCOc1ccc(S(=O)(=O)N2CCCN(Cc3ccc(F)cc3F)CC2)c2cccnc12` [CBK062757]: the viability at 28.5 h, 10 µM came to 109%. The same measure for `CCOc1ccc(S(=O)(=O)N2CCCN(CC(C)C)CC2)c2cccnc12` [CBK062758]: 97%. The same measure for `CCOc1ccc(S(=O)(=O)N2CCCN(Cc3ccc(C#N)cc3)CC2)c2cccnc12` [CBK062759]: 107%; for `N#Cc1cc(CN2CCCN(S(=O)(=O)c3ccc(C(=O)c4ccccc4)cc3)CC2)ccc1F` [CBK062768]: 109%; for `O=C(c1ccccc1)c1ccc(S(=O)(=O)N2CCCN(Cc3c[nH]nc3-c3ccccc3)CC2)cc1` [CBK062773]: 85.1%. The same measure for `O=C(c1ccccc1)c1ccc(S(=O)(=O)N2CCCN(Cc3cc(F)c(F)c(F)c3)CC2)cc1` [CBK062777]: 91.2%; for `CCOC(=O)C1CC1CN1CCN(S(=O)(=O)c2ccc(OCC)c3ncccc23)CC1` (centres unmarked) [CBK062785]: 92.9%. In the case of `O=S(=O)(c1ccc(-n2cnc(Cl)c2Cl)cc1)N1CCCN(Cc2csc(-c3ccccc3)n2)CC1` [CBK062790], the viability at 28.5 h, 10 µM was determined as 104%.

Take `CCOc1ccc(S(=O)(=O)N2CCN(Cc3cccc(F)c3C)CC2)c2cccnc12` [CBK062794]: the viability at 28.5 h, 10 µM worked out at 78.3%. For the compound `CCOc1ccc(S(=O)(=O)N2CCN(Cc3cc(C(=O)OC)n(C)c3)CC2)c2cccnc12` [CBK062796], the viability at 28.5 h, 10 µM was 92.6%. The value for `O=S(=O)(c1ccc(-n2cnc(Cl)c2Cl)cc1)N1CCN(Cc2ccc(O)c(F)c2)CC1` [CBK062803] was 95.8%. The value for `COC(=O)CCc1ccc(S(=O)(=O)N2CCN(Cc3ccc(O)c(F)c3)CC2)cc1` [CBK062813] was 88.9%; that for `COC(=O)CCc1ccc(S(=O)(=O)N2CCN(Cc3cc(C)c(O)c(C)c3)CC2)cc1` [CBK062814] was 113%; that for `CCC(C)(C)c1ccc(S(=O)(=O)N2CCN(Cc3cccc4cccnc34)CC2)cc1` [CBK062830] was 98.1%. The same measure for `CCC(C)(C)c1ccc(S(=O)(=O)N2CCN(Cc3c(C)nn(C)c3C)CC2)cc1` [CBK062835]: 97.2%; for `COc1ccc(CN2CCCN(S(=O)(=O)c3ccc(C(=O)c4ccccc4)cc3)CC2)cc1F` [CBK062855]: 97.7%; for `CCCC(=O)c1ccc(S(=O)(=O)N2CCN(CCCOC3CCCCO3)CC2)cc1` (centres unmarked) [CBK062858]: 96.6%. Consider `O=S(=O)(c1ccc(C(F)(F)F)cc1Cl)N1CCN(Cc2c[nH]nc2-c2cccs2)CC1` [CBK062864], for which the viability at 28.5 h, 10 µM came out at 108%. Regarding `CCC(C)(C)c1ccc(S(=O)(=O)N2CCCN(Cc3ccnc4ccccc34)CC2)cc1` [CBK062865], the viability at 28.5 h, 10 µM was found to be 92.1%. The value for `CCC(C)(C)c1ccc(S(=O)(=O)N2CCCN(Cc3cccc4c3OCO4)CC2)cc1` [CBK062872] was 100%.
